Laboratory results: PMC12081876, “Identification of PTGR2 inhibitors as a new therapeutic strategy for diabetes and obesity” (EMBO Molecular Medicine, 2025)
“And” between values parts separate entries of the source, which are not always exact repeats. Identical values can stand only once.

Experiment: Necropsy, gross and histopathological examination
Format: in vivo, mouse
Set-up: key to Brain, Forebrain / Brain, Cerebellum and Pons / Heart: Vacuolation, cardiomyocyte / Lung: Alveolar epithelium hyperplasia / Lung: Chronic inflammation, focal / Liver: Hepatocellular adenoma, multiple / Brain, Midbrain / Kidney: Hyaline cast, renal tubule / Kidney: Cytoplasmic vacuolation, renal tubule / Kidney: Mineralization, renal tubule / Pancreas: Atrophy and accumulation adipocyte, acinar cell / Pancreas: Pancreatic islets hyperplasia / Pancreas: Lymphocytic infiltration, perivascular / Brown fat: Increased adipocyte size / White fat (Perigonadal fat) / Bone marrow, Sternum/ Femur / Bone marrow: Mineralization, focal / Bone marrow: Cellularity, decreased, bone marrow: + = Present; - =Not present; X=Not remarkable lesion; 1 = minimal (< 1%); 2 = mild (1–25%); 3 = moderate (26–50%); 4 = moderately severe (51–75%); 5 = severe/high (76–100%)
Details: for overall toxicity / pathology conclusion: mice treated 26 weeks
Experimental: The animals were sacrificed by exsanguination under anesthesia with pure carbon dioxide.
At necropsy, tissue samples of the submitted mice were collected and preserved in 10% neutral buffered formalin. The required tissues/organs of animals were trimmed, processed, and embedded in paraffin. Sections 3–5 μm in thickness were cut and put on slides for hematoxylin and eosin (H&E) staining. The histopathological evaluation was performed on the submitted tissues. Severity of lesions was graded according to the methods described (Shackelford et al, [2002]). Degrees of lesions were graded histopathologically from one to five depending on severity (1 = minimal; 2 = slight; 3 = moderate; 4 = moderately severe; 5 = severe/high).

[1] = Test group, one animal, 26 weeks
[2] = Test group, one value per animal, 26 weeks

Cc1[nH]c2nc(C(C)N3CCN(c4ccccc4)CC3)nn2c(=O)c1Cc1ccc(F)cc1 (stereo not shown) [BPRPT0245]
Pathological examination of bone marrow, brain, heart, lung, kidney, pancreas, brown fat, perigonadal fat (26 weeks, vs vehicle): no significant difference | White fat (Perigonadal fat) (Test group, first two animals, 26 weeks): X | White fat (Perigonadal fat): Inflammatory cell infiltration (Test group, last two animals, 26 weeks): 1 (1 = minimal (< 1%)) and 2 (2 = mild (1–25%)) | Bone marrow: Cellularity, decreased, bone marrow [1]: - | Bone marrow: Infiltration, lymphocyte [1]: 1 (1 = minimal (< 1%)) | Bone marrow: Mineralization, focal [1]: - | Brain, Forebrain (Test group, one value per animal (T1,T2,T2[sic],T4), 26 weeks): X | Brain, Cerebellum and Pons [2]: X | Brain, Midbrain [2]: X | Brown fat: Increased adipocyte size [2]: + | Heart: Inflammatory cell infiltration/Cardiomyopathy [2]: 2 (2 = mild (1–25%)) (3×) and 1 (1 = minimal (< 1%)) | Heart: Vacuolation, cardiomyocyte [2]: - (3×) and 2 (2 = mild (1–25%)) | Kidney: Cytoplasmic vacuolation, renal tubule [2]: 2 (2 = mild (1–25%)) (3×) and - | Kidney: Hyaline cast, renal tubule [2]: 1 (1 = minimal (< 1%)) and - (3×) | Kidney: Inflammatory cell infiltration, peripelvic /perivacscular [2]: 2 (2 = mild (1–25%)) (3×) and 1 (1 = minimal (< 1%)) | Kidney: Mineralization, renal tubule [2]: 1 (1 = minimal (< 1%)) and - (3×) | Kidney: Tubular degeneration/regeneration with inflammatory cell infiltration [2]: 2 (2 = mild (1–25%)) | Liver: Hepatocellular adenoma, multiple [2]: - | Liver: Inflammation [2]: 1 (1 = minimal (< 1%)) (2×) and 2 (2 = mild (1–25%)) (2×) | Liver: Lymphocytic cell infiltration, perivascular [2]: 1 (1 = minimal (< 1%)) (2×) and 2 (2 = mild (1–25%)) (2×) | Liver: Steatosis [2]: 2 (2 = mild (1–25%)) (2×) and 4 (4 = moderately severe (51–75%)) (2×) | Lung: Alveolar epithelium hyperplasia [2]: 2 (2 = mild (1–25%)) and - (3×) | Lung: Chronic inflammation, focal [2]: 1 (1 = minimal (< 1%)) (2×) and - (2×) | Lung: Inflammatory cell infiltration, perivascular [2]: 1 (1 = minimal (< 1%)) (2×) and 2 (2 = mild (1–25%)) (2×) | Pancreas: Atrophy and accumulation adipocyte, acinar cell [2]: - | Pancreas: Fat infiltration, exocrine [2]: 2 (2 = mild (1–25%)) (2×) and 1 (1 = minimal (< 1%)) (2×) | Pancreas: Lymphocytic infiltration, perivascular [2]: - (2×) and 2 (2 = mild (1–25%)) (2×) | Pancreas: Pancreatic islets hyperplasia [2]: 1 (1 = minimal (< 1%)) (2×) and - (2×) | Bone marrow, Sternum/ Femur (Test group, three animals, 26 weeks): X | overall toxicity / pathology conclusion: no detectable toxicity | overall toxicity / pathology conclusion (listed as test article): not related
